Assay type in all cases: in vivo, human
In assay [1] the test system is females with wrist fracture pain or wrist arthritis. Nature of the assay: Treatment of pain. Conditions: person. From the text:
A person suffered a wrist fracture of the left distal radius and ulnar styloid, with subsequent severe pain.
A person was diagnosed 10 years ago with arthritis in their right wrist, with pain, weakness, and limited motion in the hand and wrist. […] The condition has worsened since they were first diagnosed. The individual is being treated with regular steroid injections. […] They are able to twist open tightly closed containers. Additionally, bone snapping sounds and feelings are no longer present.

The subject of assay [2] is patients with ocular discomfort resulting from dry eye. Nature of the assay: Treatment of dry eye with topical progesterone applied cranially. As for the experimental part:
Twenty-seven patients diagnosed with ocular discomfort resulting from dry eye were treated with topical progesterone (0.5%-1% by weight, corresponding to approximately 1-4 mg progesterone per application) applied to the forehead either once or twice per day.
A summary of clinical results is shown below in Table 2.

Assay [3] concerns patient with corneal Herpes zoster. The assay can be described thus: Treatment of herpetic keratitis. Conditions: one year, 1 mg progesterone to forehead 2 or 3 times a day, no other drugs.
The subject of assay [4] is male and female with cyclosporine-induced eye irritation. Nature of the assay: Treatment of drug-induced eye irritation. Conditions: 1% progesterone to forehead after cleaning off drug residual; within two minutes. From the text: Ten minutes later, drug residual was cleaned off from the forehead, and 1% progesterone was applied.
In assay [5] the test system is patient with corneal Herpes zoster. Nature of the assay: Treatment of herpetic keratitis. Conditions: for intraocular pressure: ganciclovir gel plus progesterone to forehead. An excerpt: A person suffered a first onset of active corneal Herpes zoster. They presented with classic Herpes Zoster symptoms including, left hemisphere unilateral skin lesions on forehead, bridge of nose area and down the nose not including the tip; left cornea dendrites, keratitis and edema; loss of functional vision, elevated intraocular pressure as high as 42 mm Hg, conjunctival irritation and redness and anesthetic cornea. There were also general body flu symptoms.
The patient was initially treated with ophthalmic prednisolone acetate 1% up to 5 times daily, ophthalmic antibiotics, non-prescription ophthalmic wetting agents, and lubrication with gels administered to the eye. Additional drug therapies included systemic oral valcyclovir as high as 2 g per day and medications to reduce intraocular pressure.
Despite the therapy, symptom flare-up was as frequent as 2 weeks to 1 month over the past 10 years. Although intraocular pressure returned to within the normal range, cataracts formed as a result of long term use of corticosteroids.
The cornea surface contour became increasingly distorted with prominent ridges. There was incursion of capillaries across the conjunctiva into the cornea, both superficially and deep. Deposition of phospholipids through a leaching process occluded the cornea with grey color deposits on about 50% of its surface.
Corneal thinning had progressed to near perforation levels which required preparation for corneal patch surgery.
At this point, 1% topical progesterone (approximately 1 mg of progesterone) was first administered as a method to keep the cornea from perforating and the tear film intact. The drug was applied to the forehead 4 times daily together with topical antibiotics and corticosteroids.
After stabilizing the cornea, antiviral treatment was begun with ganciclovir gel (0.15%; 0.15 mg of drug) applied five times daily to the forehead together with once daily progesterone (1%; 1 mg of drug) and a nightly drop of ophthalmic antibiotic. Intraocular pressure measured at the onset of ganciclovir treatment was 18 mm Hg.
The patient reported a decrease in eye strain as a result of an improvement in tear film. […] Over the next two weeks, inflammation was further reduced and visual acuity increased somewhat when the head was tilted back. During the first full month of treatment, the affected eye generally felt comfortable. There was a lack of inflammation, and some vision returned to the threshold of functionality. Intraocular pressure remained normal in the range of 16 mm Hg.
There was modest improvement in reading the eye chart, and corneal staining due to defects was minimized. Intraocular pressure remained normal in both eyes at about 16 mm Hg during this period. The phospholipid deposits further reduced in density and began to give the appearance of lesser areas of concentrations. Nearly functional vision could be achieved by positioning the head back and viewing through the central cornea. The residual clear area of the cornea became more so and less inflamed. Through the end of the second month, improvement to the cornea accelerated. The pupil was now clearly visible and more light was entering the eye.
The patient was examined regularly by an ophthalmologist, and after three and one half months of treatment. The intraocular pressure was normal at 12 mm Hg. […] Intraocular pressure has remained in the same range for more than one year.

The subject of assay [6] is post-surgical patients on glaucoma medication. Nature of the assay: Treatment of ocular discomfort and redness in post-surgical patients and patients on glaucoma medication. As to conditions: 1% progesterone to forehead, three times daily or 2-3 times then once a day. From the text: A […] […] had four eye surgeries and was being treated with two glaucoma eye drops (dorzolamide-timolol combination and travaprost) together with a lubricating eye gel twice a day.
A […] […] had multiple surgeries and was diagnosed with Fuch's corneal dystrophy and narrow angle glaucoma. Prior to the latest surgery, when they were almost legally blind, they started applying to their forehead 1% progesterone 2-3 times a day, then reduced the application frequency to once a day.

Assay [7] deals with person with blepharospasm. Nature of the assay: Treatment of blepharospasm. Conditions: fourteen days of 1% progesterone gel to forehead; before treatment 73. An excerpt:
Upon ophthalmic re-examination following fourteen days of 1% progesterone gel applied topically to the forehead, the blink rate had decreased to 18 times per minute.

The record followed here is patent US10251835B2, “Cranial delivery of pharmaceuticals” (GLIA, LLC, priority 2013, dated 2019).

“Also recorded” adds a separate entry of the source.

Take `CC(=O)[C@H]1CC[C@H]2[C@@H]3CCC4=CC(=O)CC[C@]4(C)[C@H]3CC[C@]12C` [progesterone]: the “wrist pain, mobility and strength” value in assay [1] (arthritis, five days after applying 1% progesterone to forehead) was “significantly less wrist pain and increased mobility and strength”. For the same molecule, the “time to significant decrease in pain” value in assay [1] (wrist fracture, approximately 4 mg progesterone to forehead) was ≤ 15 min. Also, the Results result in assay [2] (0.5-1% on the forehead, once daily) is “After prolonged use, no longer requires; also recorded: Eyes moist and tearing minutes after; also recorded: application. Stopped all auxiliary eye”; in assay [2] (1% progesterone ON), “Equally effective. Uses nightly once a day”. In addition, in assay [2] (progesterone 0.5%-1% (about 1-4 mg per application) to forehead once or twice per day), the “overall clinical result in twenty-seven dry eye patients” value is reported as “Improvement was seen in all cases; also recorded: Most patients were able to discontinue previous therapy”. Besides, in assay [2] (subject 4, 1% progesterone), the “time until moisture felt” value was “moisture felt after 10 minutes; after weeks”. Besides, the corneal perforation result in assay [3] is “the cornea remained unperforated”. Also, the “relief of cyclosporine-induced irritation and stinging” value in assay [4] is “irritation and stinging began to dissipate”. The corneal deterioration entry in assay [5] (1% progesterone (about 1 mg) to forehead 4 times daily together with topical antibiotics and corticosteroids) was “Further corneal deterioration was halted”. In addition, the “inflammation, visual acuity and state of affected eye” value in assay [5] (ganciclovir gel 0.15% (0.15 mg) five times daily plus progesterone 1% (1 mg) once daily to forehead, nightly ophthalmic antibiotic, 1 week to 3.5 months) was “less inflammation and a slight improvement in visual acuity; also recorded: some functional vision was attained; also recorded: stable and normalizing”. The intraocular pressure was 12 mm Hg in assay [5] (after three and one half months); “about 16 mm Hg” in assay [5] (both eyes, examination period up to third month); ~16 mm Hg in assay [5] (first full month of treatment). In addition, the “ocular discomfort, redness and need for lubricating drops” value in assay [6] was “able to stop using the lubricating drops; also recorded: Redness also disappeared; also recorded: helped to ease irritation, lid sticking and redness”. In assay [7], this molecule registered a blink rate of 18 times per minute.
